# Where a name gives a salt, the structure may show the parent alone.
# Experiments:
# viable CD4+ population = test: In vitro T cell culture compound screen, flow cytometry for cells co-expressing CCR7 and CD62L in CD4+ cells; format: cell-based, human; conditions: 10 μM, about 6 days; for CD4 Hit: anti-CD3/anti-CD28 beads, hit criteria: Z-score > +2 for percent or relative absolute number of CCR7+CD62L+ cells; for number or ratio of cells co-expressing CCR7 and CD62L: viable CD4+ population
# Description: (§1) In Vitro T Cell Culture. Fresh leukopaks (AllCells, Alameda, CA) were obtained from healthy donors, from which T cells were negatively selected using the EasySep Human T Cell Enrichment Kit (Stem Cell Technologies, Vancouver, Canada). The freshly isolated T cells were aliquoted and cryopreserved. On the day the screens were initiated, T cells were thawed and washed into X-Vivo 15 with 5% human AB serum, IL-2, pen/strep, and additional supplements. Cells were dispensed into flat-bottom 384-well plates at 5×10^5 cells/ml with anti-CD3/Anti-CD28 dynabeads (ThermoFisher, Waltham, MA) at a 3:1 bead-to-cell ratio. Individual compounds were added at a final concentration of 10 μM to each well from column 3 to column 22 of each plate. Positive and negative controls were added to additional wells. Cells were incubated for about 6 days at 37 degrees with 5% CO2.
# (§2) Flow Cytometry. On Day 6 of culture, cells were stained with a fixable viability marker and fluorophore-conjugated antibodies: CD3, CD4, CD8, CD45RA, CD45RO, CD62L, CCR7, CD27, and CD122 (BD Biosciences, San Jose, CA; and BioLegend, San Diego, CA). Fluorescent absolute counting beads (Spherotech, Lake Forest, IL) were added just prior to acquisition. Data acquisition was performed on a BD Fortessa X-20 (BD Biosciences) and data were analyzed using Treestar software (FlowJo, Ashland, OR) and Spotfire (Tibco, Boston, MA).
# (§3) These cells are characterized by expression of CCR7 and CD62L. Therefore, cells co-expressing both of these identifying markers were evaluated. Within the viable CD4+ population and viable CD8+ population, the percent of cells co-expressing CCR7 and CD62L was determined. The expression of either CD62L or CCR7 on T cells, as indicative of the desired T cell subsets, have been described as having favorable functional characteristics for CAR-T cell therapy, and potentially other adoptive T cell therapies.
# (§4) The number of events in each of these gates relative to the number of absolute counting beads in each sample was calculated, defining a relative measure of the absolute number of naïve, stem cell memory, or central memory T cells within the CD4+ and/or CD8+ populations. A z-Score relative to the screened compound samples within each 384-well plate was calculated for each of these four values: 1) percent CCR7+CD62L+ in CD4+, 2) percent CCR7+CD62L+ in CD8+, 3) absolute relative number of CCR7+CD62L+ in CD4+, and 4) absolute relative number of CCR7+CD62L+ in CD8+(FIGS. 1A and 1i). Z-scores were also calculated for the percent viability of all cells within each sample and the relative absolute number of cells within each sample. A “Z-Score” is a statistical measurement of a score's relationship to the mean in a group of scores. A Z-score of 0 means the score is the same as the mean. A Z-score can also be positive or negative, indicating whether it is above or below the mean and by how many standard deviations.
# viable CD8+ population = test: In vitro T cell culture compound screen, flow cytometry for cells co-expressing CCR7 and CD62L in CD8+ cells; format: cell-based, human; conditions: 10 μM, about 6 days; for CD8 Hit: anti-CD3/anti-CD28 beads, hit criteria: Z-score > +2 for percent or relative absolute number of CCR7+CD62L+ cells; for number or ratio of cells co-expressing CCR7 and CD62L: viable CD8+ population
# Description: as §1, §2, §3, §4
# Nalm-6-luc = test: In vivo tumor clearance by compound-treated CAR-T cells in tumor-bearing NSG mice; conditions: 0.2×10^6 CD4 and CD8 CAR-T cells 1:1, retroorbital, one week after tumor injection
# Method: CAR-T cells were generated from CD4+ and CD8+ T cells that were separately activated and expanded in vitro. The cells were transduced with the CAR-2 construct (FIG. 2) one day after activation and then replated into 24-well GREX plates with or without the compounds. Half the media was replaced every two days thereafter until harvest one week post-activation. One week after tumor injection, the NSG mice were treated with 0.2×10^6 CD4 and CD8 CAR-T cells mixed at a 1:1 ratio via retroorbital injection. The mice were imaged periodically to determine tumor burden.
# CD8 CAR-T cells = test: Exhaustion marker (PD-1, Tim-3) expression on CAR-T cells by flow cytometry; format: cell-based, human; conditions: 20 nM rapa, 10 μM dmPGE2 or both; two donors; relative to vehicle
# Description: T cell dysfunction due to ‘exhaustion’ is a state that can preclude adequate control of cancer or infection.
# CD8 T cells = test: CD27 cell surface expression on CAR-transduced CD8 T cells by flow cytometry; format: cell-based, human; conditions: 20 nM rapa, 10 μM dmPGE2 or both; day 8; two donors; relative to vehicle (DMSO)
# Method: (§5) In order to perform these studies, isolated CD8 T cells were activated in bulk on day 0 using CTS (Cell Therapy Systems) Dynabeads™ CD3/CD28 (Thermo Fisher Scientific, Waltham, MA) in T cell media supplemented with IL-2. On day 1, cells were transduced with the CAR Construct 1 shown in FIG. 2 and cell density was adjusted to 0.5×10^6/ml and 10^6 cells were seeded into 12 well plates in the presence of vehicle, 20 nM rapa, 10 μM dmPGE2 or both compounds at the same concentrations. On day 4, cells were transferred into 6-well plates and 2 ml of media was added to each well. On day 6 another 2 ml of media was added to each well. On day 8, cells were analyzed on a flow cytometer for cell surface expression of CD27.
# Nalm6 tumor cells = test: In vitro serial killing assay of CAR-T cells co-cultured with tumor cells; format: cell-based, human; conditions: three rounds of in vitro killing
# Description: An in vitro serial killing assay, where CAR-T cells are allowed to “clear” tumor cells in vitro over multiple rounds, is a model that can assess CAR-T expansion in the presence of tumor cells that express the antigen recognized by the CAR. […] After thawing, the CAR-T cells were co-cultured with Nalm6 tumor cells that express endogenous CD19 and transgenic mKate2, a far-red fluorescent protein. Expression of eGFP in the CAR-T cells and mKate2 in the Nalm6 target cells allows easy and reliable identification and counting of both cell types in the serial killing assay. Prior to starting each round of killing, cell numbers were adjusted so that the same ratio of CAR-T cell to Nalm6 target cell was maintained across the CAR-T cell cultures generated from different compound treatments.
# CD8+ T-cells [1] = test: Genome-wide expression on Human Transcriptome Array microarray chips; conditions: 20 nM rapa, 10 μM dmPGE2 or both
# Method: as §5
# CD8+ T-cells [2] = test: Gene panel expression changes on Affymetrix human transcriptome arrays; format: cell-based; conditions: fold change relative to vehicle treatment
# Method: In order to perform these studies, isolated CD8 T cells were activated in bulk on day 0 using CTS (Cell Therapy Systems) Dynabeads™ CD3/CD28 (Thermo Fisher Scientific, Waltham, MA) in T cell media supplemented with IL-2. On day 1, cells were transduced with the CAR Construct 1 shown in FIG. 2 and cell density was adjusted to 0.5×10^6/ml and 10^6 cells were seeded into 12 well plates in the presence of vehicle, 20 nM rapa, 10 μM dmPGE2 or both compounds at the same concentrations. On day 4, cells were transferred into 6-well plates and 2 ml of media was added to each well. On day 6 another 2 ml of media was added to each well.
# The RNA was analyzed on Affymetrix human transcriptome arrays and fold changes (relative to vehicle treatment) of the genes in the panel were determined.
# K562-CD19 = test: Secondary tumor rechallenge of mice that survived primary tumor challenge; format: in vivo, NSG mice; conditions: 21 day post challenge with secondary tumor
Compound,CD4 Hit (viable CD4+ population),CD8 Hit (viable CD8+ population),number or ratio of cells co-expressing CCR7 and CD62L (viable CD8+ population),also measured
"Oc1c(Cl)cc(Cl)c2cccnc12 [8-Quinolinol,5,7-dichloro-]",CD4,CD8,increased,number or ratio of cells co-expressing CCR7 and CD62L (viable CD4+ population): increased
"Oc1c(I)cc(Cl)c2cccnc12 [8-Quinolinol,5-chloro-7-iodo-]",CD4,CD8,increased,number or ratio of cells co-expressing CCR7 and CD62L (viable CD4+ population): increased
COc1ccc(-c2cc3nccn3c(Nc3ncccc3C(N)=O)n2)cc1OC [BAY 61-3606],CD4,–,increased,–
N#CC(=C(/N)Sc1ccccc1N)/C(C#N)=C(\N)Sc1ccccc1N [U0126],CD4,–,increased,tumor clearance / tumor control by treated CAR-T cells (Nalm-6-luc): minimal tumor control
"CCCCC(C)(C)[C@H](O)/C=C/[C@H]1[C@H](O)CC(=O)[C@@H]1C/C=C\CCCC(=O)O [dmPGE2, 16,16-dimethyl Prostaglandin E2]",–,–,–,"PD-1 expression (CD8 CAR-T cells): decreased; Tim-3 expression (CD8 CAR-T cells): no effect; CD27 expression, relative MFI (vehicle defined as 1) (CD8 T cells): no increase; clearing of target cells over time by previously treated CAR-T cells (Nalm6 tumor cells): successfully cleared target cells; total number of genes down-regulated more than 2 fold compared to vehicle control (CD8+ T-cells [1]): 38; total number of genes up-regulated more than 2 fold compared to vehicle control (CD8+ T-cells [1]): 71; BLIMP-1 expression (CD8+ T-cells [2]): slightly upregulated"
CC(C)(C)c1ccc(C(O)CCCN2CCC(C(O)(c3ccccc3)c3ccccc3)CC2)cc1 (centres unmarked) [Terfenadine],CD4,–,increased,–
"CCC(CO)Nc1nc(NCc2ccccc2)c2ncn(C(C)C)c2n1 (stereo in doubt) [Roscovitine, (S)-Isomer]",CD4,–,increased,–
O=C(N/N=C/c1ccc([N+](=O)[O-])o1)c1ccc(O)cc1 [Nifuroxazide],–,CD8,increased,–
"CCCc1c(-c2ccc(O)cc2)nn(-c2ccc(O)cc2)c1-c1ccc(O)cc1 [1,3,5-tris(4-hydroxyphenyl)-4-propyl-1H-pyrazole]",CD4,–,increased,–
C=CCc1cccc(/C=N/NC(=O)CN2CCN(Cc3ccccc3)CC2)c1O [PAC-1],CD4,–,increased,–
CC[n+]1c(/C=C/C=C2/N(C)c3ccccc3C2(C)C)sc2ccccc21.[I-] [AC-93253 iodide],CD4,CD8,increased,number or ratio of cells co-expressing CCR7 and CD62L (viable CD4+ population): increased
"N.S=C(S)N1CCCC1 [1-Pyrrolidinecarbodithioic acid, ammonium salt]",CD4,–,increased,–
C[C@]12CC[C@@H]3c4ccc(O)cc4C[C@@H](CCCCCCCCC[S+]([O-])CCCC(F)(F)C(F)(F)F)[C@H]3[C@@H]1CC[C@@H]2O (some centres unmarked) [Fulvestrant],–,CD8,increased,–
Oc1cccc(-c2nc(N3CCOCC3)c3oc4ncccc4c3n2)c1 [PI-103],CD4,CD8,–,mice with no detectable tumor (K562-CD19): 60%
C=CC1=C(C)c2cc3[nH]c(cc4nc(cc5[nH]c(cc1n2)c(C)c5CCC(=O)O)C(CCC(=O)O)=C4C)c(C)c3C=C [Protoporphyrin IX disodium],CD4,–,increased,–
Sc1ncnc2nc[nH]c12 [6-Mercaptopurine],CD4,CD8,increased,number or ratio of cells co-expressing CCR7 and CD62L (viable CD4+ population): increased
CN(C)c1ccc(C=C2C(=O)Nc3ccccc32)cc1 [SU 4312],–,CD8,increased,–
NC1CCN(c2nc3c(cc2F)c(=O)c(C(=O)O)cn3-c2ccc(F)cc2F)C1 (centres unmarked) [Tosufloxacin hydrochloride],CD4,–,increased,–
CCCc1nc2c(C)cc(-c3nc4ccccc4n3C)cc2n1Cc1ccc(-c2ccccc2C(=O)O)cc1 [Telmisartan],CD4,–,increased,–
Nc1ncn([C@@H]2O[C@H](CO)[C@@H](O)[C@H]2O)c(=O)n1 [5-Azacytidine],CD4,CD8,increased,number or ratio of cells co-expressing CCR7 and CD62L (viable CD4+ population): increased
C/C=C(/C)C(=O)O[C@H]1C(C)=C2[C@H]([C@@H]1OC(=O)CCCCCCC)[C@@](C)(OC(C)=O)C[C@H](OC(=O)CCC)[C@@]1(O)[C@H]2OC(=O)[C@@]1(C)O [Thapsigargin],–,CD8,increased,–
CC[N+](C)(C)c1cccc(O)c1 [Edrophonium chloride],–,CD8,increased,–
O=C(O)Cc1cc(I)c(Oc2ccc(O)c(I)c2)c(I)c1 [Tiratricol],CD4,CD8,increased,number or ratio of cells co-expressing CCR7 and CD62L (viable CD4+ population): increased
CN[C@H]1CC[C@@H](c2ccc(Cl)c(Cl)c2)c2ccccc21 [Sertraline],CD4,CD8,–,–
CC(C)C1CCC2(CO2)C2C(=O)OCC(C(=O)O)=CC12 (centres unmarked) [Heptelidic acid],CD4,CD8,increased,number or ratio of cells co-expressing CCR7 and CD62L (viable CD4+ population): increased
Nc1cccc(-c2cc3c(Oc4cccc(O)c4)ncnc3[nH]2)c1 [TWS119],–,–,–,tumor clearance / tumor control by treated CAR-T cells (Nalm-6-luc): minimal tumor control
COc1cc2nc(N3CCCN(C)CC3)nc(NC3CCN(Cc4ccccc4)CC3)c2cc1OC [BIX01294],CD4,–,increased,–
"2-Naphthacenecarboxamide, 7-chloro-4-(dimethylamino)-1,4,4a,5,5a,6,11,12a-octahy",–,CD8,increased,–
"Diethylenetriaminepentaacetic acid, penta sodium",CD4,CD8,increased,number or ratio of cells co-expressing CCR7 and CD62L (viable CD4+ population): increased
CO[C@H]1C[C@@H]2CC[C@@H](C)[C@@](O)(O2)C(=O)C(=O)N2CCCC[C@H]2C(=O)O[C@H]([C@H](C)C[C@@H]2CC[C@@H](O)[C@H](OC)C2)CC(=O)[C@H](C)/C=C(\C)[C@@H](O)[C@@H](OC)C(=O)[C@H](C)C[C@H](C)/C=C/C=C/C=C/1C [rapamycin],–,–,–,"CD27 expression, relative MFI (vehicle defined as 1) (CD8 T cells): approximately 2 fold; total number of genes down-regulated more than 2 fold compared to vehicle control (CD8+ T-cells [1]): 284; total number of genes up-regulated more than 2 fold compared to vehicle control (CD8+ T-cells [1]): 215"

# Reference: patent US12419870B2, “Compositions and methods for immune cell modulation in adoptive immunotherapies” (Fate Therapeutics, Inc., priority 2016, dated 2025)
